From patent US12139491B2, “Diketopiperazine derivatives as calcium ATPase inhibitor for enhancing anticancer activity” (HOLOSMEDIC, priority 2018, dated 2024)

Key:
[1] = system: cancer stem cell-like thyroid cancer cells derived from patients with relapse and metastasis after paclitaxel administration; experiment: Paclitaxel activity enhancement in paclitaxel-resistant thyroid cancer cells (cell number, viability); format: cell-based, human
Method: After cancer stem cell-like thyroid cancer cells derived from patients with relapse and metastasis after paclitaxel administration (ATC) were treated with a compound of Preparation Example 1-1 (150 nM) only; paclitaxel (12 nM) only; or a combination of paclitaxel (5 nM) and a compound of Preparation Example 1-1 (70 nM), a change in number of cells over time was confirmed. In addition, a change in cell viability according to a treatment concentration of paclitaxel, the compound of Preparation Example 1-1, or the combination of paclitaxel and the compound of Preparation Example 1-1 is shown in FIG. 1. In addition, the change in cell viability according to the treatment concentration of paclitaxel, the compound of Preparation Example 1-1 and the combination thereof was measured, and the result is shown in FIG. 2.

[2] = system: cancer stem cell-like thyroid cancer cells derived from patients with relapse and metastasis after paclitaxel administration, xenografted; experiment: Tumor volume in thyroid cancer cell xenograft mouse; format: in vivo, BALB/c nude female mouse; details: 60 days, FIG. 3
Method: After cancer stem cell-like thyroid cancer cells derived from patients with relapse and metastasis after paclitaxel administration were cultured in vitro, the cultured cells were injected subcutaneously into the upper left flank of a BALB/c nude female mouse to be 2.0×10^7 cells/mouse. […] The mice were anesthetized to measure a change in tumor volume daily using calipers for 60 days, and the result is shown in FIG. 3. The tumor volume was evaluated using the following Equation 1. Tumor volume=L×S^2/2 [Equation 1] • (however, L is the longest diameter, and S is the shortest diameter)

[3] = system: cancer stem cell-like stomach cancer cells derived from patients with relapse and metastasis after irinotecan administration; experiment: Irinotecan activity enhancement in irinotecan-resistant stomach cancer cells (cell number); format: cell-based, human; details: FIG. 4
Method: After cancer stem cell-like stomach cancer cells derived from patients with relapse and metastasis after irinotecan administration were treated with the compound of Preparation Example 1-1 only (170 nM); irinotecan only (8.9 μM); or a combination of irinotecan (4.5 μM) and the compound of Preparation Example 1-1 (75 nM), a change in cell number over treatment time was measured, and the result is shown in FIG. 4.

[4] = system: cancer stem cell-like colorectal cancer cells derived from patients with relapse and metastasis after radiation therapy; experiment: Radiation treatment activity enhancement in radiation-resistant colorectal cancer cells (cell number); format: cell-based, human; details: compound (75 nM) and X-rays at 5 Gy; FIG. 8
Method: After cancer stem cell-like colorectal cancer cells derived from patients with relapse and metastasis after radiation therapy were treated with the compound of Preparation Example 1-1 (150 nM) only; Faxitron X-rays (Faxitron Bioptics, AZ, USA) at an intensity of 5 Gy (RT); or the compound of Preparation Example 1-1 (75 nM) and the X-rays at an intensity of 5 Gy, the change in number of cancer cells over treatment time was measured, and the result is shown in FIG. 8.

[5] = system: cancer stem cell-like colorectal cancer cells derived from patients with relapse and metastasis after radiation therapy, xenografted; experiment: Tumor volume and weight in colorectal cancer cell xenograft mouse; format: in vivo, BALB/c nude female mouse; details: oral compound (27 mg/kg) and X-rays at 5 Gy
Method: (§1) After cancer stem cell-like colorectal cancer cells, which were derived from patients with relapse and metastasis after radiation therapy, were cultured in vitro, the cultured cells were injected subcutaneously into the upper left flank of a BALB/c nude female mouse to be 2.0×10^7 cells/mouse. […] The mice were anesthetized to measure a change in tumor volume daily using calipers for 40 days, and the result is shown in FIG. 9. The tumor volume was calculated by the above-described Equation 1. In addition, after 40 days, a tumor weight was measured, and the result is shown in FIG. 10, and for 41 days, the body weight of the mouse was measured, and the result is shown in FIG. 11.

[6] = Body weight of colorectal cancer cell xenograft mice; format: in vivo, BALB/c nude female mouse; details: 41 days, compared with negative control, stated as no toxicity problem, FIG. 11
Method: as §1

[7] = Body weight of stomach cancer cell xenograft mice; details: 41 days, compared with negative control, stated as no toxicity problem, FIG. 7
[8] = system: cancer stem cell-like stomach cancer cells derived from patients with relapse and metastasis after irinotecan administration, xenografted; experiment: Tumor volume and weight in stomach cancer cell xenograft mouse
[9] = system: SKOV3-TR (paclitaxel-resistant epithelial ovarian cancer cell line); experiment: Cell morphology and viability (ImageJ living cell count) in SKOV3-TR; format: cell-based; details: paclitaxel 5 μM; morphological analysis
Method: (§2) To confirm the anticancer therapeutic activity enhancing effects of the compounds of Preparation Examples, the compounds or salts prepared in Preparation Examples 1-1 to 31 (hereinafter, the compounds of Preparation Examples) were used, and cellular experiments were carried out with an epithelial ovarian cancer cell line SKOV3 and SKOV3-TR derived therefrom and produced as a resistant cell line having resistance to a paclitaxel anticancer agent. […]
(§3) For the morphological analysis of the cells, 24, 48 and 72 hours after paclitaxel treatment, images of cells treated with “None (untreated sample)”, “DMSO (paclitaxel solvent)”, “ethanol (solvent for the compounds of Preparation Examples)”, “paclitaxel”, “paclitaxel+ethanol”, and “paclitaxel+the compound of Preparation Example 1-2 (L19001)” were obtained. In addition, for the analysis of cell viability, 72 hours after treatment with paclitaxel or the compound of each Preparation Example only, or co-treatment with paclitaxel and the compound of each Preparation Example, the number of living cells was measured through Image J analysis.
(§4) The cell viability of the two types of cancer cell lines was analyzed by measuring the number of living cells using the ImageJ program.

[10] = system: SKOV3 (epithelial ovarian cancer cell line); experiment: Cell morphology and viability (ImageJ living cell count) in SKOV3; format: cell-based; details: paclitaxel 0.2 μM; morphological analysis
Method: as §2, §3, §4

Question: What does the source list for `CCc1oc2ccccc2c1CN1CCN2C(=O)CNC(=O)C2C1` (centres unmarked) [Preparation Example 1-1, 2-((2-ethylbenzofuran-3-yl)methyl)hexahydro-2H-pyrazino[1,2-a]pyrazine-6,9-dione]?
Answer: number of stem cell-like thyroid cancer cells ([1]; combination of paclitaxel (5 nM) and compound (70 nM), FIG. 1): remarkably decreased; cell viability of stem cell-like thyroid cancer cells ([1]; combination of paclitaxel and compound, FIG. 2): remarkably decreased; tumor volume ([2]; oral compound (27 mg/kg) then intraperitoneal paclitaxel (11 mg/kg)): remarkably decreased; number of cancer cells ([3]; combination of irinotecan (4.5 μM) and compound (75 nM)): remarkably decreased; number of cancer cells [4]: remarkably decreased; tumor volume ([5]; 40 days, FIG. 9): remarkably decreased; tumor weight ([5]; after 40 days, FIG. 10): remarkably decreased; change in body weight of the mouse ([6]; oral compound (27 mg/kg) in combination with radiation therapy (5 Gy)): no change; change in body weight of the mouse ([6]; oral compound (60 mg/kg) only): no change; change in body weight of the mouse ([7]; oral compound (32 mg/kg) in combination with irinotecan (55 mg/kg)): no change; change in body weight of the mouse ([7]; oral compound (70 mg/kg) alone): no change; tumor volume ([8]; oral compound (32 mg/kg) and irinotecan (55 mg/kg), 40 days, FIG. 5): remarkably decreased; tumor weight ([8]; oral compound (32 mg/kg) and irinotecan (55 mg/kg), after 40 days, FIG. 6): remarkably decreased

Question: Which “change in number of cancer cells” value ([3]; irinotecan only (8.9 μM), compared with negative control) does the source give for `CCc1c2c(nc3ccc(OC(=O)N4CCC(N5CCCCC5)CC4)cc13)-c1cc3c(c(=O)n1C2)COC(=O)[C@]3(O)CC` [irinotecan, reference compound] here?
Answer: no change

Question: And the “change in tumor weight” value ([8]; oral irinotecan (75 mg/kg) only, after 40 days, compared with negative control, FIG. 6)?
Answer: no change

Question: Which “change in cancer cell number” value ([1]; paclitaxel (12 nM) only, compared with negative control, FIG. 1) does the source give for `CC(=O)O[C@H]1C(=O)[C@@]2(C)[C@H]([C@H](OC(=O)c3ccccc3)[C@]3(O)C[C@H](OC(=O)[C@H](O)[C@@H](NC(=O)c4ccccc4)c4ccccc4)C(C)=C1C3(C)C)[C@]1(OC(C)=O)CO[C@@H]1C[C@@H]2O` [paclitaxel, reference compound] here?
Answer: no change

Question: What about the “viability of cancer cells” value ([1]; paclitaxel only, compared with negative control, FIG. 2) of the same molecule?
Answer: no change

Question: What about the “change in tumor volume” value ([2]; intraperitoneal paclitaxel (25 mg/kg) only, compared with negative control) of the same molecule?
Answer: no change

Question: What about the “number of living cells (induction of cell death and inhibition of cell growth)” value [9] of the same molecule?
Answer: decrease

Question: What about the “number of living cells (induction of cell death and inhibition of cell growth)” value [10] of the same molecule?
Answer: decrease
